Measured values taken from US11447505B1, “Pyrrolo[2,3-b]pyridine compounds and their use in the treatment of cancer” (priority 2017, dated 2022).
“Also recorded” adds a separate entry of the source.

Assays:
MRCKα = MRCKα (Homo sapiens (Human), UniProt Q5VT25); assay: MRCKα kinase assay (IMAP fluorescence polarization); type: biochemical; conditions: 1 μM ATP; read-out: MRCK-a Average Ki
Source text: (§1) MRCKα, MRCKβ, ROCK1 and ROCK2 Kinase Assays

MRCKβ [1] = molecular target: T1, MRCKβ (Homo sapiens (Human), UniProt Q9Y5S2); assay: MRCKβ kinase assay (IMAP fluorescence polarization); type: biochemical; conditions: 1 μM ATP; read-out: MRCK-B Average Ki
Source text: as §1

ROCK2 = ROCK2 (Homo sapiens (Human), UniProt O75116); assay: ROCK2 kinase assay (IMAP fluorescence polarization); type: biochemical; conditions: 1 μM ATP; read-out: ROCK2 Average Ki
ROCK2, sequence (O75116 whole entry, the tested form may be a part): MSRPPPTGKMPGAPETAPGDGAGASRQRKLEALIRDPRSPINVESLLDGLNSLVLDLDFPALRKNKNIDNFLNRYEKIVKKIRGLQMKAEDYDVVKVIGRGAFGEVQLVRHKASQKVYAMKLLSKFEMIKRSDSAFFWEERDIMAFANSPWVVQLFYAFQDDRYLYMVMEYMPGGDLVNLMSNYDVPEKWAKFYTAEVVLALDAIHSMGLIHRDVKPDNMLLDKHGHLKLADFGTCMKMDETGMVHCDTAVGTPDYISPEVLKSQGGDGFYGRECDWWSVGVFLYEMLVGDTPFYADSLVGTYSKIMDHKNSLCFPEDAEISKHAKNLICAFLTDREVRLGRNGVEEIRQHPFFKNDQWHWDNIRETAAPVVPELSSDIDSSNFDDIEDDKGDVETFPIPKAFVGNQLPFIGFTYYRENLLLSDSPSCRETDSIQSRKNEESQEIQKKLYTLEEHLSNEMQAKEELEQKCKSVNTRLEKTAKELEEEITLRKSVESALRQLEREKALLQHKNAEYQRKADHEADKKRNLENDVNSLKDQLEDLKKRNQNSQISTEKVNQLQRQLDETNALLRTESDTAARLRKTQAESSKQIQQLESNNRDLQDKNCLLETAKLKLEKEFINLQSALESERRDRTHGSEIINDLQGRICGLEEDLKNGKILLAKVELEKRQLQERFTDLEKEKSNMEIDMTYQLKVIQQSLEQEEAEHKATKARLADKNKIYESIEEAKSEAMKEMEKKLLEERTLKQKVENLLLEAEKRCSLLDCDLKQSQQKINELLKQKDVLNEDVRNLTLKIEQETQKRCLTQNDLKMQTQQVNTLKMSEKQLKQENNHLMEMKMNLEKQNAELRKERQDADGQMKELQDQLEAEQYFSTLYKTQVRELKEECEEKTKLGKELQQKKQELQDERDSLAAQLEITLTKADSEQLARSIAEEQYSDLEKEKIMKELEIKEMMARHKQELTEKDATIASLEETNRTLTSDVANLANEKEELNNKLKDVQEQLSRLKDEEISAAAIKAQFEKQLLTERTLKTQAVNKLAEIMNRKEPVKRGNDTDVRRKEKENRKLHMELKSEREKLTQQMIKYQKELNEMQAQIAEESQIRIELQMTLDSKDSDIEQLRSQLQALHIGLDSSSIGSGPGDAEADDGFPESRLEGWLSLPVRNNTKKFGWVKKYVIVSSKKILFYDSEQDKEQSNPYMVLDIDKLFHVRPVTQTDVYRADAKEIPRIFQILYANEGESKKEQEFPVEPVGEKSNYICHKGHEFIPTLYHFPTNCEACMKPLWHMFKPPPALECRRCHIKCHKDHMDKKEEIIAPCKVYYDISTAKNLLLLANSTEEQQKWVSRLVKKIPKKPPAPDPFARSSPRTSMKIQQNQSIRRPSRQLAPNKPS

MRCKβ [2] = molecular target: T1, MRCKβ; assay: MRCKβ cellular assay (pMLC T18/S19 immunoblot, MDA-MB-231 cells with doxycycline inducible kinase domain); type: cell-based; conditions: MDA-MB-231 cells, doxycycline inducible kinase domain, 60 minutes, pMLC (T18/S19); read-out: Cellular assay - MRCK-b inhibition MEAN
Procedure: (§2) MRCKβ, ROCK1 and ROCK2 Cellular Assays
(§3) MDA-MB-231 cells expressing doxycycline inducible ROCK1, ROCK2 or MRCKβ kinase domains were plated at 1.1×10^5 cells per well of a 12 well plate. After 24 hours, cells were treated with 1 μg/ml doxycycline for 18 hours to induce kinase domain expression and then tested over a suitable concentration range with compounds of the invention for 60 minutes. Cells were then washed with PBS and lysed with Tris-SDS lysis Buffer (50 mM Tris-HCl pH7.4, 0.5% (v/v) SDS, 1×PhosStop Inhibitors (04 906 837 001; Roche) and 1×Complete Protease Inhibitors (04 693 124 001; Roche)). Whole cell lysates were clarified by passing through QIAshredder spin columns, separated by SDS-PAGE, and quantitative immunoblotting performed using a LI-COR Odyssey IR scanner to determine pMLC (T18/S19) and α-Tubulin levels.

ROCK1 [3] = molecular target: T2, ROCK1 (Homo sapiens (Human), UniProt Q13464); assay: ROCK1 cellular assay (pMLC T18/S19 immunoblot, MDA-MB-231 cells with doxycycline inducible kinase domain); type: cell-based; conditions: MDA-MB-231 cells, doxycycline inducible kinase domain, 60 minutes, pMLC (T18/S19); read-out: Cellular assay - ROCK1 inhibition MEAN
T2 sequence (Q13464 2-1354 limits assumed): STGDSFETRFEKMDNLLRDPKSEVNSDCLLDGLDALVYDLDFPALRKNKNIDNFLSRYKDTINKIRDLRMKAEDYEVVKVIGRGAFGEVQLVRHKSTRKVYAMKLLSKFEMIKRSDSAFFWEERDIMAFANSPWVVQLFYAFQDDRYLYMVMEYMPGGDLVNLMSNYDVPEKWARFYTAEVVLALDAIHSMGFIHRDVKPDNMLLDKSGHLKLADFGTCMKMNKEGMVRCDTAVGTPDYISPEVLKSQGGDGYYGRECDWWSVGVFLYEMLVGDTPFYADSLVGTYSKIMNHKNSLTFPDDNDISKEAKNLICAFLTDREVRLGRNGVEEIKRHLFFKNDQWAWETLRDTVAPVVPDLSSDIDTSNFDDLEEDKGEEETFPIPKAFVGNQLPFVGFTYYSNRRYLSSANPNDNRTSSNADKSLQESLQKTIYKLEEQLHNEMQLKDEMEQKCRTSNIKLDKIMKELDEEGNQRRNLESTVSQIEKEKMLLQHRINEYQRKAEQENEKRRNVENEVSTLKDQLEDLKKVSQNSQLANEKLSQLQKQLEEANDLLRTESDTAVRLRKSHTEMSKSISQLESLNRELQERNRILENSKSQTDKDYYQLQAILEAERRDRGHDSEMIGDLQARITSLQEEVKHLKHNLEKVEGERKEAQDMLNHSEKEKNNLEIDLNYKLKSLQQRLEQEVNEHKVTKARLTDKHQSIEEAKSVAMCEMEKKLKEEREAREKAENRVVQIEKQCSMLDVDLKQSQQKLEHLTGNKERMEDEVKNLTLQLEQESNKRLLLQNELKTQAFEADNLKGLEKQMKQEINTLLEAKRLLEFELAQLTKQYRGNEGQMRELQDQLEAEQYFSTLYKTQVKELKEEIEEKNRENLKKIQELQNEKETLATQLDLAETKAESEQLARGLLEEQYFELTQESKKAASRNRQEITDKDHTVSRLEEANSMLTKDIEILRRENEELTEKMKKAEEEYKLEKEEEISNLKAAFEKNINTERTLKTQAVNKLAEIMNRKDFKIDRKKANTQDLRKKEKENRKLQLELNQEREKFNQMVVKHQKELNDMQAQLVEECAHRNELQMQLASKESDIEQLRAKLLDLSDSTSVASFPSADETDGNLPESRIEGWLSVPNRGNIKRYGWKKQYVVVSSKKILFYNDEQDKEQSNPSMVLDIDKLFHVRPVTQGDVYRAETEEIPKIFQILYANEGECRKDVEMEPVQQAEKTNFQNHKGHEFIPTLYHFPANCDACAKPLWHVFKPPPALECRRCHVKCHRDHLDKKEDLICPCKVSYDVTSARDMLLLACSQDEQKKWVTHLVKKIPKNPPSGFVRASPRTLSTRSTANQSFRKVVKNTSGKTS
Procedure: as §2, §3

DMBA/TPA skin papillomas = assay: DMBA/TPA mouse model of squamous cell carcinoma, topical treatment; type: in vivo; conditions: topical 25 μg 5 times per week for 14 weeks, vs DMSO
Procedure: (§4) For DMBA/TPA experiments, 40 FVB mice were treated topically with 25 μg DMBA in acetone on day 1. From day 5, 4.7 μg TPA in acetone was applied 3 times weekly. […] Experimenters were fully blinded to the identity of treatment groups. Mice weights and general conditions were monitored at least 2 times per week, tumor sizes and numbers were recorded weekly. Mice were culled when papillomas reached 12 mm in diameter. Analysis of tumor volume and papilloma numbers were performed blinded to the identity of treatment groups.

E2 and G7 cells = assay: Sub confluent migration assay of irradiated GBM cells (timelapse, single cell tracking); type: cell-based, human; conditions: 2 Gy
Procedure: (§5) Cells were irradiated using an Xstrahl RX225 radiation cabinet (195 kV X-rays, dose rate 1.39 Gy/minute). For sub confluent migration assays, 2×10^5 cells per well were plated at in 6 well dishes and migration imaged by timelapse microscopy capturing images every 15 mins. Migration velocity was calculated using single cell tracking via ImageJ analysis. For ex vivo migration assays, cell were seeded onto fresh 1 mm coronal brain slices obtained from 6-8 week old C57BL/6 mice in culture medium (described above) and allowed to establish overnight with incubation at 37° C., 5% CO2. Brain slices were then inverted onto Lumox 35 mm dishes (8 μm, Sarstedt) and secured with Nuclepore Track-Etch membrane (Whatman) sealed with Matrigel. Migration was captured via confocal timelapse microscopy with images taken every 15 mins. Migration velocity was calculated using single cell tracking via ImageJ analysis.
(§6) (B) Treated cells were exposed to 0 Gy or 2 Gy and imaged in a sub-confluent migration assay. Cell speed was measured by single cell tracking. […] Data from 3 biological replicates. (D) Fluorescently labelled E2 cells were exposed to 0 Gy or 2 Gy radiation and seeded onto fresh murine brain slices. […] Data from 3 biological replicates. […] Baseline value of 34% was calculated from the average of 10 non-motile, non-irradiated cells. […]

E2 cells [4] = assay: Ex vivo migration assay of irradiated GBM cells on murine brain slices; type: cell-based, human; conditions: 100 nM, 2 Gy
Procedure: as §5, §6

G7 cells = assay: Cell viability assay; type: cell-based, human
Source text: (§7) FIG. 4. […] N.S.=not significant. […] Cells were imaged using an Operetta high-throughput imaging platform. Red: actin, blue: DAPI, Scale bar: 100 μm. Automated image analysis was undertaken to quantify changes in neurite morphology. Data from >1000 cells.

G7 and E2 cells = assay: Clonogenic survival assay with irradiation; type: cell-based, human; conditions: 100 nM, G7 or E2 cells
Source text: as §7

pMLC2 = pMLC2 immunofluorescence, Operetta high-throughput imaging; type: cell-based, human
Source text: Cells were imaged using an Operetta high-throughput imaging platform. Green: pMLC2; yellow: actin; red: whole cell dye; blue: DAPI; Scale bar: 100 μm. (ii) Automated image analysis was undertaken to compare pMLC2 levels in control and irradiated cells. Data are derived from two biological repeats, each analysing >400 cells per condition.
Cells were imaged using an Operetta high-throughput imaging platform. Automated image analysis was used to compare pMLC2 levels. Data from two biological repeats with >400 cells per condition per biological replicate. Data plotted as a percentage of vehicle. […] Cells were imaged using an Operetta high-throughput imaging platform.

E2 cells [5] = assay: Neurite morphology, automated image analysis; type: cell-based, human; conditions: cells treated with irradiation
Source text: as §7

[6] = PK analysis in mice bearing intracranial U87MG or G7 tumours, subcutaneous dosing; type: in vivo, mouse
Procedure: (§8) Female CD1 nude mice were orthotopically injected with 1×10^5 G7 or U87MG cells into the subventricular zone as previously described (16, 17). Tumours were allowed to establish for before magnetic resonance imaging (MRI) to confirm presence of tumour. Radiation treatments were conducted using an XSrtahl Small Animal Radiation Research Platform (SARRP). […] Tumours were sub-dissected and fresh frozen specimens sent for PK analysis (Vertex, UK). Formalin fixed, paraffin embedded sections were stained for Ki67, HLA or phosphoMYPT1 then scanned using a Hamamatsu Nanozoomer Slide scanning machine with Leica SlidePath Slide imaging software. Algorithms were optimised for each stain individually and automated, quantitative analysis undertaken. The defining of contralateral regions was performed blinded.
(§9) Tumours were sub-dissected from normal brain tissue and analysed by mass spectrometry to determine total compound levels (‘Total’). […] G7 intracranial tumours were allowed to establish for 12 weeks before initiation of treatment. The study was randomised and blinded. […] (D) Brain sections were stained by IHC for pMYPT1 levels (i). Levels of nuclear and cytoplasmic pMYPT1 were quantified by automated analysis using SlidePath. Statistical analysis: two tailed, unpaired t test. *p<0.05.

Plasma protein binding = type: in vitro ADME
pMYPT1 = pMYPT1 IHC of brain sections from mice bearing G7 intracranial tumours; type: in vivo, mouse; conditions: 3×2 Gy whole brain RT + 5 mg/kg twice daily for 10 days; listed as BDP-9066
Procedure: as §8, §9

G7 intracranial tumours = assay: Survival of mice bearing G7 intracranial GBM tumours; type: in vivo, mouse
Procedure: Female CD1 nude mice were orthotopically injected with 1×10^5 G7 or U87MG cells into the subventricular zone as previously described (16, 17). Tumours were allowed to establish […] magnetic resonance imaging (MRI) to confirm presence of tumour. Radiation treatments were conducted using an XSrtahl Small Animal Radiation Research Platform (SARRP). 5 mg/kg BDP-9066 or vehicle (20% propylene glycol/80% PBS) was given subcutaneously twice daily or at stated time before cull for PK analysis. Tumours were sub-dissected and fresh frozen specimens sent for PK analysis (Vertex, UK). Formalin fixed, paraffin embedded sections were stained for Ki67, HLA or phosphoMYPT1 then scanned using a Hamamatsu Nanozoomer Slide scanning machine with Leica SlidePath Slide imaging software. Algorithms were optimised for each stain individually and automated, quantitative analysis undertaken. The defining of contralateral regions was performed blinded.
FIG. 6. […] (A) Outline of experiment to measure in vivo survival to BDP-9066 treatment. G7 intracranial tumours were allowed to establish for 10 weeks before initiation of treatment. Mice in the RT cohorts received 6×2 Gy whole brain RT over the course of two weeks. Only mice that were culled after the first 3 fractions of RT were included in the analysis to allow for any treatment benefit to take effect. The study was randomised, blinded and the mice stratified across the cohorts based on starting tumour size as assessed by T2 MRI. (B) Kaplan-Meier plot showing survival data. N.S.=not significant, *<p 0.05, **p<0.005. Statistical analysis: Log-rank (Mantel-Cox) test.
Pharmacological inhibition of MRCK when combined with radiotherapy confers a significant survival benefit to intracranial GBM tumour bearing mice. G7 intracranial tumours were established in four cohorts of mice: vehicle, BDP-9066, RT+vehicle and RT+BDP-9066 (FIG. 6A) and the 4 week treatment schedule outlined in FIG. 6A was commenced at 10 weeks post tumour cell injection. The experiment was terminated at 104 days after a final T2 MRI on the remaining mice.

ROCK1 [7] = molecular target: T2, ROCK1; assay: biochemical
[8] = molecular target: kinase targets listed in tables 3 and 4 (Homo sapiens, UniProt Q13464); assay: biochemical
kinase targets listed in tables 3 and 4 (Homo sapiens, UniProt Q13464), sequence (Q13464 2-1354 limits assumed): as above

[9] = molecular target: kinase targets listed in tables 3 and 4 (Homo sapiens, UniProt Q9BXA7); assay: biochemical
kinase targets listed in tables 3 and 4 (Homo sapiens, UniProt Q9BXA7), sequence (Q9BXA7 whole entry, looked up): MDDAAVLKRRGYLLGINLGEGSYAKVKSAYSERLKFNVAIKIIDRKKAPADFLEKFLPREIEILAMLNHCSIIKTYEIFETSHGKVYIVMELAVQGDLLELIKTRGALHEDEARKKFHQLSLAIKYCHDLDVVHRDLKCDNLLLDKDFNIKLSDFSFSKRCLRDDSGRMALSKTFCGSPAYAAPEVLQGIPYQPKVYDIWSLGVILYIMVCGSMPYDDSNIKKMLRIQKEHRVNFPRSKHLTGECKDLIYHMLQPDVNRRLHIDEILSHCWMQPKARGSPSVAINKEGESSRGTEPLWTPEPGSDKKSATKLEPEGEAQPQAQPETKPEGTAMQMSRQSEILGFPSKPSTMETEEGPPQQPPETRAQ

[10] = molecular target: kinase targets listed in tables 3 and 4 (Homo sapiens, UniProt Q9Y5S2); assay: biochemical
[11] = Skin and blood compound concentrations after topical application to FVB mice
Procedure: (§10) Mice were culled 2 hours after final treatment. […] Mice were culled 2 hours, 4 hours, 8 hours or 24 hours after final treatment.
as §4

MRCKα pS1003 = MRCKα pS1003 immunohistochemical staining of topically treated mouse skin and papillomas; conditions: vs DMSO
Procedure: as §10, §4

[12] = FVB, mouse, skin, topical, 25 μg

MRCKα, sequence (Q5VT25 whole entry): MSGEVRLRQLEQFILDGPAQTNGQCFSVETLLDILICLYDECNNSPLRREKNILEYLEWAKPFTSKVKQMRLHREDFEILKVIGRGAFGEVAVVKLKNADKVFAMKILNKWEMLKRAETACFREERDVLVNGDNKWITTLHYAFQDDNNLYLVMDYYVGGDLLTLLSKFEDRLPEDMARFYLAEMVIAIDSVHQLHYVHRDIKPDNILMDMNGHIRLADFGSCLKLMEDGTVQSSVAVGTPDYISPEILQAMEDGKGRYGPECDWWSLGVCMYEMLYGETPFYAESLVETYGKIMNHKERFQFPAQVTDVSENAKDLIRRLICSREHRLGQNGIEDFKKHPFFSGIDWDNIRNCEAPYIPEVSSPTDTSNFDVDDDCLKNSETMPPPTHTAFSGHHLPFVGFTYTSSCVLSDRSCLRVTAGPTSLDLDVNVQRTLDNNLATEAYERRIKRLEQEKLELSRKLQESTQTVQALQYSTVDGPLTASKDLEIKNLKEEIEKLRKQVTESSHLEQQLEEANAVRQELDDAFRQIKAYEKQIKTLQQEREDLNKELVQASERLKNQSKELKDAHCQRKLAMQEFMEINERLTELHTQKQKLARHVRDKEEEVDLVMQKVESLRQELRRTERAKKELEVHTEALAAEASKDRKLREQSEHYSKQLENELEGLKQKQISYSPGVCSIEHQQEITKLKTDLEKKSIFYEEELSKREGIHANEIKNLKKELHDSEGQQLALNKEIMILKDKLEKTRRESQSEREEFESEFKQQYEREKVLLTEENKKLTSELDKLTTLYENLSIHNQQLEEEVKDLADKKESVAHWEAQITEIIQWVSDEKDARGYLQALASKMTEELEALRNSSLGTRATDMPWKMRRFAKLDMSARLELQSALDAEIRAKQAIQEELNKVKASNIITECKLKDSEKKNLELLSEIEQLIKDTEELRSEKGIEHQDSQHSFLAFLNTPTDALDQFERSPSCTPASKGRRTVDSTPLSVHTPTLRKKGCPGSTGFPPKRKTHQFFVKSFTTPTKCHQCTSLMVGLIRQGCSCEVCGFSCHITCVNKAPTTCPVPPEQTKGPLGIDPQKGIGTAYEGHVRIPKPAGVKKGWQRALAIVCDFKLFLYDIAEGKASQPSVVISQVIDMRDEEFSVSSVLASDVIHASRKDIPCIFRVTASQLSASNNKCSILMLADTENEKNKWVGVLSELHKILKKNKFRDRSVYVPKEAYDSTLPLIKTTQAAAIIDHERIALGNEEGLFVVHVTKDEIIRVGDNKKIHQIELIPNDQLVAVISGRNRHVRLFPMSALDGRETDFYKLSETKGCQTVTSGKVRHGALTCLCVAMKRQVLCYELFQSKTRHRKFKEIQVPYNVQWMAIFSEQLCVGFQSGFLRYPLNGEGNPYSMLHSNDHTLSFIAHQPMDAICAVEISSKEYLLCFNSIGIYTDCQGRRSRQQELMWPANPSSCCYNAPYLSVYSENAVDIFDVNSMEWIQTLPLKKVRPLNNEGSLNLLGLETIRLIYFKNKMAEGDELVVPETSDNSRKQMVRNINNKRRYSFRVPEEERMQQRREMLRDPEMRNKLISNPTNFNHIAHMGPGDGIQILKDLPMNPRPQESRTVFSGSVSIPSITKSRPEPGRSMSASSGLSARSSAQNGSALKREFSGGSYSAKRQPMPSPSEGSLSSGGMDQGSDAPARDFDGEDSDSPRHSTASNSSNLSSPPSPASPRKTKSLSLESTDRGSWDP

c1cc(-c2c[nH]c3nccc(N4CCC[C@@]5(CCCCN5)C4)c23)ncn1 [Example E117, (6S)-8-(3-pyrimidin-4-yl-1H-pyrrolo[2,3-b]pyridin-4-yl)-1,8-diazaspiro[5.5]undecane] gave a Ki (MRCKα) of 0.0136 nM, a Ki (MRCKβ [1]) of 0.0233 nM and a Ki (ROCK2) of 5.38 nM. For the same compound, the IC50 (MRCKβ [2]) was 28.3 nM, the IC50 (ROCK1 [3]) was 10600 nM and the “average papilloma volume per mouse” value (DMBA/TPA skin papillomas) was “significantly reduced”. For the same compound, the “skin papilloma appearance at study end” value (DMBA/TPA skin papillomas) was “appeared visually smaller”, the “total papilloma numbers per mouse” value (DMBA/TPA skin papillomas) was “not different” and the “total tumor volume per mouse” value (DMBA/TPA skin papillomas) was “significantly reduced”. For the same compound, the “radiation driven sub confluent migration” value (E2 and G7 cells; 100 nM, G7 and E2 cells) was “fully oppose”, the “cell speed of irradiated GBM cells” value (E2 and G7 cells; increasing concentrations, E2 and G7 cells) was “robust dose response” and the “radiation driven ex vivo brain slice invasion” value (E2 cells [4]) was “fully oppose”. For the same compound, the “cell viability at higher concentrations” value (G7 cells; higher concentrations, likely off target toxicity) was “loss of cell viability”, the cell viability (G7 cells; sub-micromolar levels / anti-invasive concentrations, G7 cells, listed as BDP-9066) was “does not affect cell survival; also recorded: No effect” and the “radiation sensitivity measured by clonogenic survival” value (G7 and E2 cells) was “no impact”. The IC50 (pMLC2; Homo sapiens, light or radiation study, irradiated G7 and E2 cells) was 56 nM, the “response in biomarker assay (pMLC2)” value (pMLC2; cells treated with irradiation) was “robust dose dependent response” and the “response in morphological assay (neurites)” value (E2 cells [5]) was “robust dose dependent response”. For the same compound, the “penetration of intracranial tumours” value ([6]; 5 mg/Kg subcutaneous, 30 mins prior to cull, U87MG and G7 tumours, listed as BDP-9066) was “penetrates intracranial GBM xenografts; also recorded: penetrated intracranial tumours”, the “presence in blood at the time of culling” value ([6]; 5 mg/kg subcutaneous twice daily for 10 days) was “micromolar concentrations” and the bioavailability ([6]; PK profile, data not shown) was “good bioavailability”. The clearance ([6]; PK profile, data not shown) was “rapid clearance”, the “exposure in the brain, contralateral hemisphere” value ([6]; sub-cutaneous dosing, absence of significant tumour burden) was “very low exposure” and the PPB free value (Plasma protein binding) was 72.7%. For the same compound, the fraction unbound (Plasma protein binding; plasma) was 0.727, the “radiation driven MYPT1 phosphorylation” value (pMYPT1) was “inhibits; also recorded: opposes” and the “survival, combined with RT vs untreated cohort” value (G7 intracranial tumours; 6×2 Gy whole brain RT, p=0.0007, listed as BDP-9066) was “significant survival advantage; also recorded: highly significant increase in survival”. The “survival, combined with RT vs radiation alone” value (G7 intracranial tumours; 6×2 Gy whole brain RT, p=0.0459) was “significantly above”, the “survival, compound alone” value (G7 intracranial tumours; vs untreated cohort) was “no significant survival benefit” and the Ki (ROCK1 [7]) was 18.4 nM. It also gave an IC50 [8] of 141 nM, a Ki [8] of 54 nM and an IC50 [9] of 287 nM. It also gave a Ki [9] of 136 nM, an IC50 [10] of 8.3 nM and a Ki [10] of 1.38 nM. The “compound in blood at experimental endpoint” value ([11]; DMBA/TPA FVB mice, topical 25 μg 5 times per week for 14 weeks) was “no detectable levels; also recorded: undetectable”, the concentration at 2 h ([11]; FVB, mouse, blood, topical, 25 μg) was 0.04 µM and the concentration at 14 weeks [11, 12] was > 1 µM. The concentration at 2 h [11, 12] was 26 µM, the concentration at 24 h [11, 12] was > 16 µM and the “clearance in the blood” value ([11]; by deactivation and/or metabolism) was “rapid clearance”. For the same compound, the “drug levels in the skin compared with blood” value ([11]; topical 4×25 μg over 2 days, dorsal skin) was “significantly higher than in blood”, the “mean concentration in the skin” value ([11]; topical administration, DMBA/TPA experiment) was “greater than 1 micromolar” and the “level in blood 24 hours after final dosing” value ([11]; topical single 25 μg or 8×25 μg (4 days on, 2 off, 4 on)) was “undetectable”. For the same compound, the “compound accumulation on repeated dosing” value ([11]; topical, repeated 25 μg vs single 10 μg) was “less than additive”, the “MRCKα pS1003 cytoplasmic histoscores in papillomas” value (MRCKα pS1003; DMBA/TPA mice, topical 25 μg) was “reduced histoscores” and the “MRCKα pS1003 cytoplasmic histoscores in the treated skin area” value (MRCKα pS1003; DMBA/TPA mice, topical 25 μg) was “reduced histoscores”. For the same compound, the “MRCKα pS1003 immunohistochemistry staining” value (MRCKα pS1003; DMBA/TPA treated skin, topical 25 μg) was “significant decreases” and the “epidermal MRCKα pS1003 positive staining” value (MRCKα pS1003; topical 4×25 μg over 2 days, FVB mouse skin) was “significant reduction; also recorded: significantly reduced”.
Work on c1csc(-c2c[nH]c3nccc(N4CCC[C@@]5(CCCCN5)C4)c23)n1 [Example E150, 2-[4-[(6S)-1,8-diazaspiro[5.5]undecan-8-yl]-1H-pyrrolo[2,3-b]pyridin-3-yl]thiazole] yielded a Ki (MRCKα) of 0.0332 nM, a Ki (MRCKβ [1]) of 0.0246 nM and a Ki (ROCK2) of 21.7 nM. The IC50 (MRCKβ [2]) was 42.2 nM, the IC50 (ROCK1 [3]) was > 30000 nM and the Ki (ROCK1 [7]) was 56.9 nM. It also gave an IC50 [8] of 406 nM, a Ki [8] of 251 nM and an IC50 [9] of 4360 nM. The Ki [9] was 2070 nM, the IC50 [10] was 6.9 nM and the Ki [10] was 1.15 nM.
c1cc(N2CCCC3(CCCCN3)C2)c2c(-c3ncsn3)c[nH]c2n1 (centres unmarked) [Example E236, 3-[4-[1,8-diazaspiro[5.5]undecan-8-yl]-1H-pyrrolo[2,3-b]pyridin-3-yl]-1,2,4-thiadiazole] gave a Ki (MRCKα) of 0.0945 nM, a Ki (MRCKβ [1]) of 0.0898 nM and a Ki (ROCK2) of 105 nM. The IC50 (MRCKβ [2]) was 145 nM, the IC50 (ROCK1 [3]) was > 30000 nM and the Ki (ROCK1 [7]) was 390 nM.
